Data as given in patent publication US7074829B2, “Antiestrogens, process for their production and their pharmaceutical use” (Schering AG, priority 1998, dated 2006).

System: uterus
Test: Uterus growth test in infant rats (antiestrogenic action)
Type: in vivo, rat
Settings: inhibition compared to the estradiol benzoate (EB) control

Structure (SMILES)	Antiuterotrophic Action at 0.3 mg s.c. [% Inhibition]
C[C@]12C[C@H](c3ccc(OCCCCC[S+]([O-])CCCC(F)(F)C(F)(F)F)cc3)[C@H](c3ccc(O)cc3)C[C@@H]1CC[C@@H]2O (stereo partly drawn) [Example 3, (1S,3S,4R,6S,9S)-9-Hydroxy-4-(4-hydroxyphenyl)-1-methyl-3-[4-(5-(4,4,5,5,5-pentafluoro-pentylsulfinyl)pentyloxy)phenyl]-bicyclo[4.3.0]nonane]	37
CC(=O)O[C@H]1CC[C@H]2C[C@@H](c3ccc(O)cc3)[C@@H](c3ccc(OCCCCC[S+]([O-])CCCC(F)(F)C(F)(F)F)cc3)C[C@@]21C (some centres unmarked) [Example 5]	55
